Active and inactive are the calls of the source. The calls are words filed in the database; no cut-off is given here.
Tests used:
[1] = target: Interleukin-1 beta (Homo sapiens) (UniProt P01584); test: Inhibition of IL-1beta in PMA-differentiated human THP-1 cells at 100 nM co-incubated with compound and LPS for 24 hrs by ELISA relative to control; type: cell-based
[2] = target: Interleukin-1 beta (Homo sapiens) (UniProt P01584); test: Inhibition of IL-1beta in PMA-differentiated human THP-1 cells at 200 nM co-incubated with compound and LPS for 24 hrs by ELISA relative to control; type: cell-based
[3] = Apparent volume of distribution in C57BL/6J mouse at 5 mg/kg, iv measured for 24 hrs by LC-MS/MS analysis; type: ADME, organism-based; settings: in vivo, read-out: Vz
Mus musculus [4] = test: Anti-inflammatory activity in DSS-induced colitis C57BL/6 mouse model assessed as reduction in inflammatory cell infiltration in colon tissue at 5 to 20 mg/kg, ip administered daily for 10 days by H and E staining based analysis; type: functional, organism-based; settings: dose 5-20 mg/kg, time 10.0 day
Mus musculus [5] = test: Anti-inflammatory activity in DSS-induced colitis C57BL/6 mouse model assessed as reduction in intestinal mucosal damage in colon tissue at 5 to 20 mg/kg, ip administered daily for 10 days by H and E staining based analysis; type: functional, organism-based; settings: dose 5-20 mg/kg, time 10.0 day
[6] = Clearance in C57BL/6J mouse at 5 mg/kg, iv measured for 24 hrs by LC-MS/MS analysis; type: ADME, organism-based; settings: in vivo
Mus musculus [7] = test: Anti-inflammatory activity in DSS-induced colitis C57BL/6 mouse model assessed as reduction in IL-1beta level in colon tissue at 5 to 20 mg/kg, ip administered daily for 10 days by IHC analysis; type: functional, organism-based; settings: dose 5-20 mg/kg, time 10.0 day
Mus musculus [8] = test: Anti-inflammatory activity in DSS-induced colitis C57BL/6 mouse model assessed as reduction in weight loss at 5 to 20 mg/kg, ip administered daily for 10 days; type: functional, organism-based; settings: dose 5-20 mg/kg, time 10.0 day
[9] = Half life in C57BL/6J mouse at 5 mg/kg, iv measured for 24 hrs by LC-MS/MS analysis; type: ADME, organism-based; settings: in vivo
Mus musculus [10] = test: Anti-inflammatory activity in DSS-induced colitis C57BL/6 mouse model harboring NLRP3 KO assessed as reduction in loss of intestinal crypts in colon tissue at 20 mg/kg, ip administered daily for 10 days by H and E staining based analysis; type: functional, organism-based; settings: time 10.0 day
[11] = Half life in C57BL/6J mouse at 5 mg/kg, ip measured for 24 hrs by LC-MS/MS analysis; type: ADME, organism-based; settings: in vivo
Mus musculus [12] = test: Anti-inflammatory activity in DSS-induced colitis C57BL/6 mouse model assessed as reduction in loss of intestinal crypts in colon tissue at 5 to 20 mg/kg, ip administered daily for 10 days by H and E staining based analysis; type: functional, organism-based; settings: dose 5-20 mg/kg, time 10.0 day
Mus musculus [13] = test: Anti-inflammatory activity in DSS-induced colitis C57BL/6 mouse model harboring NLRP3 KO assessed as reduction in colon length shortening at 20 mg/kg, ip administered daily for 10 days; type: functional, organism-based; settings: time 10.0 day
Mus musculus [14] = test: Anti-inflammatory activity in DSS-induced colitis C57BL/6 mouse model assessed as reduction in NLRP3 level in colon tissue at 5 to 20 mg/kg, ip administered daily for 10 days by IHC analysis; type: functional, organism-based; settings: dose 5-20 mg/kg, time 10.0 day
Mus musculus [15] = test: Anti-inflammatory activity in DSS-induced colitis C57BL/6 mouse model assessed as reduction in colon tissue shortening at 5 to 20 mg/kg, ip administered daily for 10 days; type: functional, organism-based; settings: dose 5-20 mg/kg, time 10.0 day
THP-1 [16] = test: Effect on NLRP3 mRNA expression in PMA-differentiated human THP-1 cells co-incubated with compound and LPS for 24 hrs by qRT-PCR analysis; type: functional, cell-based
[17] = AUC (0 to infinity) in C57BL/6J mouse at 5 mg/kg, ip measured for 24 hrs by LC-MS/MS analysis; type: ADME, organism-based; settings: in vivo
[18] = Cmax in C57BL/6J mouse at 5 mg/kg, ip measured for 24 hrs by LC-MS/MS analysis; type: ADME, organism-based; settings: in vivo
Mus musculus [19] = test: Anti-inflammatory activity in DSS-induced colitis C57BL/6 mouse model harboring NLRP3 KO assessed as reduction in intestinal mucosal damage in colon tissue at 20 mg/kg, ip administered daily for 10 days by H and E staining based analysis; type: functional, organism-based; settings: time 10.0 day
[20] = AUC (0 to t) in C57BL/6J mouse at 5 mg/kg, ip measured for 24 hrs by LC-MS/MS analysis; type: ADME, organism-based; settings: in vivo
Mus musculus [21] = test: Anti-inflammatory activity in DSS-induced colitis C57BL/6 mouse model assessed as suppression of disease activity index administered intraperitoneally daily for 10 days; type: functional, organism-based; settings: dose 5-20 mg/kg, route ip, time 10.0 day
Mus musculus [22] = test: Anti-inflammatory activity in DSS-induced colitis C57BL/6 mouse model harboring NLRP3 KO assessed as reduction in IL-1beta level at 20 mg/kg, ip administered daily for 10 days […]; type: functional, organism-based; settings: time 10.0 day
Mus musculus [23] = test: Anti-inflammatory activity in DSS-induced colitis C57BL/6 mouse model harboring NLRP3 KO assessed as reduction in inflammatory cell infiltration in colon tissue at 20 mg/kg, ip administered daily for 10 days by H and E staining based analysis; type: functional, organism-based; settings: time 10.0 day
THP-1 [24] = test: Cytotoxicity against PMA-differentiated human THP-1 cells assessed as reduction in cell viability at 50 to 5000 nM incubated for 24 hrs by MTT assay; type: toxicity, cell-based; settings: thp-1, 24 h, 5 µM, dose 50-5000 nM
[25] = Volume of distribution at steady state in C57BL/6J mouse at 5 mg/kg, iv measured for 24 hrs by LC-MS/MS analysis; type: ADME, organism-based; settings: in vivo, read-out: Vdss
[26] = Oral bioavailability in C57BL/6J mouse at 5 mg/kg measured for 24 hrs by LC-MS/MS analysis; type: ADME, organism-based; settings: in vivo
[27] = AUC (0 to infinity) in C57BL/6J mouse at 5 mg/kg, iv measured for 24 hrs by LC-MS/MS analysis; type: ADME, organism-based; settings: in vivo
[28] = AUC (0 to t) in C57BL/6J mouse at 5 mg/kg, iv measured for 24 hrs by LC-MS/MS analysis; type: ADME, organism-based; settings: in vivo

Interleukin-1 beta (Homo sapiens), sequence (P01584 117-269 limits assumed): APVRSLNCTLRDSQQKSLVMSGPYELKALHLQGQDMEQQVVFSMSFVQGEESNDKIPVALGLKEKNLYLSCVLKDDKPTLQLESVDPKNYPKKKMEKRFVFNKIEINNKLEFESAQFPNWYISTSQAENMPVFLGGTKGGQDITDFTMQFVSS

COc1cc(/C=C2/C(=O)N(CCCCOc3ccc(S(=O)(=O)NC(=O)Nc4c5c(cc6c4CCC6)CCC5)cc3)c3ccc(Br)cc32)cc(Br)c1O
inhibition [1]: 19.2% | inhibition [2]: 40.8%

O=C(Nc1c2c(cc3c1CCC3)CCC2)NS(=O)(=O)c1ccc(OCCCCCCCCN2C(=O)/C(=C/c3cc(Br)c(O)c(Br)c3)c3cc(Br)ccc32)cc1
inhibition [1]: -5.3% | inhibition [2]: 39.6%

COc1ccc(Cl)cc1C(=O)NCCc1ccc(S(=O)(=O)NCCCCCCCCCCN2C(=O)/C(=C/c3cc(Br)c(O)c(OC)c3)c3cc(Br)ccc32)cc1
inhibition [1]: 7.3% | inhibition [2]: 28%

COc1cc(/C=C2/C(=O)N(CCOCCOc3ccc(S(=O)(=O)NC(=O)Nc4c5c(cc6c4CCC6)CCC5)cc3)c3ccc(Br)cc32)cc(Br)c1O
inhibition [1]: 35.6% | inhibition [2]: 59.2%

COc1ccc(Cl)cc1C(=O)NCCc1ccc(S(=O)(=O)NCCOCCOCCN2C(=O)/C(=C/c3cc(Br)c(O)c(OC)c3)c3cc(Br)ccc32)cc1
inhibition [1]: 11% | inhibition [2]: 43.1%

O=C(Nc1c2c(cc3c1CCC3)CCC2)NS(=O)(=O)c1ccc(OCCOCCOCCN2C(=O)/C(=C/c3cc(Br)c(O)c(Br)c3)c3cc(I)ccc32)cc1
inhibition [1]: 50.5% | inhibition [2]: 41.7%

COc1ccc(Cl)cc1C(=O)NCCc1ccc(S(=O)(=O)NCCCCCCCCN2C(=O)/C(=C/c3cc(Br)c(O)c(OC)c3)c3cc(Br)ccc32)cc1
inhibition [1]: -7.2% | inhibition [2]: 37.9%

O=C(Nc1c2c(cc3c1CCC3)CCC2)NS(=O)(=O)c1ccc(OCCOCCOCCN2C(=O)/C(=C/c3cc(Br)c(O)c(Br)c3)c3cc(Br)ccc32)cc1
inhibition [1]: 17.8% | inhibition [2]: 45.2%

COc1ccc(Cl)cc1C(=O)NCCc1ccc(S(=O)(=O)NCCOCCN2C(=O)/C(=C/c3cc(Br)c(O)c(OC)c3)c3cc(Br)ccc32)cc1
inhibition [1]: 39% | inhibition [2]: 23.1%

O=C(Nc1c2c(cc3c1CCC3)CCC2)NS(=O)(=O)c1ccc(OCCCCN2C(=O)/C(=C/c3cc(Br)c(O)c(Br)c3)c3cc(I)ccc32)cc1
inhibition [1]: 43.1% | inhibition [2]: 48.5%

O=C(Nc1c2c(cc3c1CCC3)CCC2)NS(=O)(=O)c1ccc(OCCCCCCCCCCCCN2C(=O)/C(=C/c3cc(Br)c(O)c(Br)c3)c3cc(I)ccc32)cc1
inhibition [1]: 40.1% | inhibition [2]: 7.9%

COc1ccc(Cl)cc1C(=O)NCCc1ccc(S(=O)(=O)NCCOCCOCCOCCN2C(=O)/C(=C/c3cc(Br)c(O)c(OC)c3)c3cc(Br)ccc32)cc1
inhibition [1]: 8.2% | inhibition [2]: -4.9%

COc1cc(/C=C2/C(=O)N(CCOCCOCCOCCOc3ccc(S(=O)(=O)NC(=O)Nc4c5c(cc6c4CCC6)CCC5)cc3)c3ccc(Br)cc32)cc(Br)c1O
inhibition [1]: 57.6% | inhibition [2]: 32.7%

COc1cc(/C=C2/C(=O)N(CCCCCCCCCCCCOc3ccc(S(=O)(=O)NC(=O)Nc4c5c(cc6c4CCC6)CCC5)cc3)c3ccc(Br)cc32)cc(Br)c1O
inhibition [1]: 20.4% | inhibition [2]: 35.3%

O=C(Nc1c2c(cc3c1CCC3)CCC2)NS(=O)(=O)c1ccc(OCCCCN2C(=O)/C(=C/c3cc(Br)c(O)c(Br)c3)c3cc(Br)ccc32)cc1
inhibition [1]: 42.8% | inhibition [2]: 49.2%

COc1cc(/C=C2/C(=O)N(CCCCCCCCOc3ccc(S(=O)(=O)NC(=O)Nc4c5c(cc6c4CCC6)CCC5)cc3)c3ccc(Br)cc32)cc(Br)c1O
inhibition [1]: 27.7% | inhibition [2]: 19.2%

COc1ccc(Cl)cc1C(=O)NCCc1ccc(S(=O)(=O)NCCCCCN2C(=O)/C(=C/c3cc(Br)c(O)c(OC)c3)c3cc(Br)ccc32)cc1
inhibition [1]: 50.4% | inhibition [2]: 36.2%

O=C(Nc1c2c(cc3c1CCC3)CCC2)NS(=O)(=O)c1ccc(OCCCCCCCCCCCCN2C(=O)/C(=C/c3cc(Br)c(O)c(Br)c3)c3cc(Br)ccc32)cc1
inhibition [1]: 14.8% | inhibition [2]: 19.5%

O=C(Nc1c2c(cc3c1CCC3)CCC2)NS(=O)(=O)c1ccc(OCCCCCCCCN2C(=O)/C(=C/c3cc(Br)c(O)c(Br)c3)c3cc(I)ccc32)cc1
inhibition [1]: 41.9% | inhibition [2]: 26.5%

O=C(Nc1c2c(cc3c1CCC3)CCC2)NS(=O)(=O)c1ccc(OCCOCCN2C(=O)/C(=C/c3cc(Br)c(O)c(Br)c3)c3cc(Br)ccc32)cc1
inhibition [1]: 20.5% | inhibition [2]: 67.3%

O=C(Nc1c2c(cc3c1CCC3)CCC2)NS(=O)(=O)c1ccc(OCCOCCOCCOCCN2C(=O)/C(=C/c3cc(Br)c(O)c(Br)c3)c3cc(Br)ccc32)cc1
inhibition [1]: 6.7% | inhibition [2]: 66.6%

COc1cc(/C=C2/C(=O)N(CCOCCOCCOc3ccc(S(=O)(=O)NC(=O)Nc4c5c(cc6c4CCC6)CCC5)cc3)c3ccc(Br)cc32)cc(Br)c1O
inhibition [1]: 16.5% | inhibition [2]: 39.1%

O=C(Nc1c2c(cc3c1CCC3)CCC2)NS(=O)(=O)c1ccc(OCCOCCOCCOCCN2C(=O)/C(=C/c3cc(Br)c(O)c(Br)c3)c3cc(I)ccc32)cc1
Vd [3]: 2.31 L/kg | Activity (Mus musculus [4]): Active | inhibition [1]: 45.8% | Activity (Mus musculus [5]): Active | clearance [6]: 28.4 mL/min/kg | inhibition [2]: 73.6% | Activity (Mus musculus [7]): Active | Activity (Mus musculus [8]): Active | half-life [9]: 0.94 h | Activity (Mus musculus [10]): inactive | half-life [11]: 1.26 h | Activity (Mus musculus [12]): Active | Activity (Mus musculus [13]): inactive | Activity (Mus musculus [14]): Active | Activity (Mus musculus [15]): Active | Activity (THP-1 [16]): inactive | AUC(0-inf) [17]: 562 ng·h/mL | Cmax [18]: 555 ng/mL | Activity (Mus musculus [19]): inactive | AUC(0-t) at 24 h [20]: 551 ng·h/mL | Activity (Mus musculus [21]): Dose-Dependent Effect | Activity (Mus musculus [22]): inactive | Activity (Mus musculus [23]): inactive | Activity (THP-1 [24]): Non-Toxic | Vd [25]: 0.39 L/kg | bioavailability [26]: 19% | AUC(0-inf) [27]: 2970 ng·h/mL | AUC(0-t) at 24 h [28]: 2960 ng·h/mL

O=C(Nc1c2c(cc3c1CCC3)CCC2)NS(=O)(=O)c1ccc(OCCOCCN2C(=O)/C(=C/c3cc(Br)c(O)c(Br)c3)c3cc(I)ccc32)cc1
inhibition [1]: 70.4% | inhibition [2]: 98.2%
